Reference: the supplement of paper PMC10307832

Experiments:
Assay in all cases: relative viability (nuclei count vs DMSO), 5 days (fraction); higher = more cells survive
Vismodegib + Phenformin = compound: CS(=O)(=O)c1ccc(C(=O)Nc2ccc(Cl)c(-c3ccccn3)c2)c(Cl)c1 [Vismodegib] + N=C(N)NC(=N)NCCc1ccccc1 [Phenformin] (partner 250 µM)
How it was run: (§1)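 Each reported value is a median over duplicate plates. It expresses relative viability: treated-well nuclei count divided by vehicle-well nuclei count. Lung cancer cell lines in 1536-well plates were dosed by pin tool a day after seeding, alone with one drug or with a fixed anchor-drug dose plus five library-drug doses (not always all listed) in √10 steps, and nuclei were counted after 5 days.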

Vismodegib + Dasatinib = compound: CS(=O)(=O)c1ccc(C(=O)Nc2ccc(Cl)c(-c3ccccn3)c2)c(Cl)c1 [Vismodegib] + Cc1nc(Nc2ncc(C(=O)Nc3c(C)cccc3Cl)s2)cc(N2CCN(CCO)CC2)n1 [Dasatinib] (partner 0.075 µM)
How it was run: as §1

Ruxolitinib + Decitabine = compound: N#CC[C@H](C1CCCC1)n1cc(-c2ncnc3[nH]ccc23)cn1 [Ruxolitinib] + Nc1ncn([C@H]2C[C@H](O)[C@@H](CO)O2)c(=O)n1 [Decitabine] (partner 2 µM)
How it was run: as §1

Vismodegib + AZD7762 = compound: CS(=O)(=O)c1ccc(C(=O)Nc2ccc(Cl)c(-c3ccccn3)c2)c(Cl)c1 [Vismodegib] + NC(=O)Nc1cc(-c2cccc(F)c2)sc1C(=O)N[C@H]1CCCNC1 [AZD7762] (partner 0.2 µM)
How it was run: as §1

Row | Cell Line | relative viability (Vismodegib + Phenformin; first compound 0.08 µM) | relative viability (Vismodegib + Phenformin; first compound 0.253 µM) | relative viability (Vismodegib + Phenformin; first compound 0.8 µM) | relative viability (Vismodegib + Phenformin; first compound 2.53 µM) | relative viability (Vismodegib + Phenformin; first compound 8 µM) | relative viability (Vismodegib + Dasatinib; first compound 0.08 µM) | relative viability (Vismodegib + Dasatinib; first compound 0.253 µM) | relative viability (Vismodegib + Dasatinib; first compound 0.8 µM) | relative viability (Vismodegib + Dasatinib; first compound 2.53 µM) | relative viability (Vismodegib + Dasatinib; first compound 8 µM) | relative viability (Ruxolitinib + Decitabine; first compound 0.08 µM) | relative viability (Ruxolitinib + Decitabine; first compound 0.253 µM) | relative viability (Ruxolitinib + Decitabine; first compound 0.8 µM) | relative viability (Ruxolitinib + Decitabine; first compound 2.53 µM) | relative viability (Ruxolitinib + Decitabine; first compound 8 µM) | relative viability (Vismodegib + AZD7762; first compound 0.08 µM) | relative viability (Vismodegib + AZD7762; first compound 0.253 µM) | relative viability (Vismodegib + AZD7762; first compound 0.8 µM) | relative viability (Vismodegib + AZD7762; first compound 2.53 µM) | relative viability (Vismodegib + AZD7762; first compound 8 µM)
1 | 201T | 0.45 | 0.49 | 0.423 | 0.45 | 0.44 | 0.646 | 0.52 | 0.481 | 0.569 | 0.463 | 0.949 | 0.914 | 1 | 1.02 | 0.973 | 0.624 | 0.623 | 0.696 | 0.622 | 0.581
2 | A549 | 0.151 | 0.148 | 0.226 | 0.115 | 0.155 |  |  |  |  |  | 0.215 | 0.254 | 0.322 | 0.197 | 0.28 |  |  |  |  | 
3 | A-427 | 0.307 | 0.385 | 0.385 | 0.314 | 0.283 | 0.647 | 0.65 | 0.609 | 0.642 | 0.804 | 0.566 | 0.558 | 0.579 | 0.605 | 0.58 | 0.739 | 0.706 | 0.805 | 0.619 | 0.801
4 | ABC-1 | 0.231 | 0.253 | 0.241 | 0.24 | 0.235 | 0.584 | 0.415 | 0.527 | 0.527 | 0.582 |  | 1.03 | 1.38 | 1.21 | 1.21 | 0.97 | 0.851 | 0.823 | 0.803 | 0.839
5 | BEN | 0.249 | 0.281 | 0.292 | 0.255 | 0.248 | 0.385 | 0.399 | 0.337 | 0.315 | 0.296 | 0.5 | 0.699 | 0.816 | 0.592 | 0.773 | 0.792 | 0.68 | 0.77 | 0.684 | 0.701
6 | CAL-12T | 0.641 | 0.584 | 0.578 | 0.561 | 0.578 | 0.322 | 0.224 | 0.403 | 0.586 | 0.482 |  |  |  |  |  | 0.643 | 0.559 | 0.607 | 0.577 | 0.664
7 | COR-L23 | 0.441 | 0.423 | 0.43 | 0.453 | 0.493 | 0.507 | 0.455 | 0.543 | 0.452 | 0.533 | 0.493 | 0.429 | 0.521 | 0.367 | 0.322 |  |  |  |  | 
8 | COR-L 105 | 0.498 | 0.441 | 0.516 | 0.506 | 0.495 | 0.288 | 0.303 | 0.422 | 0.339 | 0.357 |  | 0.57 | 0.656 | 0.659 | 0.58 |  |  |  |  | 
9 | ChaGo-K-1 | 0.523 | 0.448 | 0.47 | 0.459 | 0.452 | 0.718 | 0.672 | 0.622 | 0.583 | 0.632 | 0.515 | 0.529 | 0.52 | 0.447 | 0.478 | 0.886 | 0.873 | 0.753 | 0.857 | 0.97
10 | EKVX | 0.225 | 0.227 | 0.24 | 0.224 | 0.233 | 0.491 | 0.561 | 0.604 | 0.576 | 0.526 |  | 0.3 | 0.35 | 0.337 | 0.414 |  | 0.774 | 0.717 | 0.606 | 0.735
11 | EMC-BAC-2 | 0.571 | 0.53 | 0.5 | 0.506 | 0.502 | 0.334 | 0.365 | 0.285 | 0.353 | 0.317 | 0.915 | 0.916 | 1.14 | 0.921 | 0.851 | 1.16 | 1.1 | 1.06 | 1.07 | 1.08
12 | EPLC-272H | 0.348 | 0.313 | 0.316 | 0.271 | 0.264 | 0.362 | 0.367 | 0.397 | 0.327 | 0.312 | 0.408 | 0.367 | 0.439 | 0.414 | 0.36 | 0.3 | 0.166 | 0.304 | 0.163 | 0.257
13 | H3255 | 0.362 | 0.378 | 0.362 | 0.324 | 0.413 | 0.303 | 0.329 | 0.38 | 0.37 | 0.309 |  | 0.568 | 0.781 | 0.535 | 0.609 | 0.951 | 0.886 | 0.818 | 0.785 | 0.853
14 | HARA | 0.47 | 0.355 | 0.537 | 0.503 | 0.415 | 0.263 | 0.249 | 0.254 | 0.339 | 0.279 | 0.63 | 0.472 | 0.631 | 0.565 | 0.489 | 0.462 |  | 0.309 | 0.244 | 0.417
15 | HCC-15 | 0.511 | 0.458 | 0.472 | 0.496 | 0.441 | 0.631 | 0.58 | 0.582 | 0.66 | 0.585 | 0.677 | 0.553 | 0.7 | 0.55 | 0.48 | 1.17 | 1.14 | 1.19 | 1.21 | 1.21
16 | HCC-44 | 0.184 | 0.195 | 0.179 | 0.173 | 0.183 |  |  |  |  |  | 0.931 | 0.971 | 0.895 | 0.877 | 0.83 | 1.06 | 1.04 | 0.932 | 1.01 | 1.04
17 | HCC-78 | 0.664 | 0.704 | 0.575 | 0.615 | 0.683 | 0.32 | 0.33 | 0.363 | 0.475 | 0.351 | 0.598 | 0.607 | 0.677 | 0.527 | 0.661 | 0.575 | 0.605 | 0.544 | 0.542 | 0.634
18 | HCC-366 | 0.683 | 0.614 | 0.631 | 0.619 | 0.586 | 0.816 | 0.587 | 0.622 | 0.693 | 0.692 | 0.361 | 0.321 | 0.318 | 0.24 | 0.275 | 0.269 | 0.217 | 0.292 | 0.258 | 0.373
